Test: Stability of bis azainositol Zirconium complexes under heat sterilization (HPLC with ICP-MS detection, ICP-OES)
Assay type: physicochemical
Conditions: absolute stability; aqueous, buffered solution at pH 7.4, 5 mmol/L of the compound, heated to 121 °C for 45 minutes in a steam autoclave
Procedure: Stability of bis azainositol Zirconium complexes
The stability of bis azainositol Zirconium complexes was determined in aqueous, buffered solution at pH 7.4. The solution containing 5 mmol/L of the compound in a tightly sealed vessel was heated to 121 °C for 45 minutes in a steam autoclave. The Zirconium concentration of the solution was determined by ICP-OES before and after heat treatment. The integrity of the compound was determined by HPLC analysis before and after heat treatment. Absolute stability was calculated as the ratio of the peak area of the compound after and before the heat treatment multiplied with the ratio of the metal concentration of the solution after and before heat treatment.
• Column 1: Reversed phase C18. • Column 2: ZIC®-HILIC. • Solvent A1: 0,5 mM tetrabutylammonium phosphate pH 6 • Solvent A2: 0.1 % formic acid in water • Solvent B1: methanol • Solvent B2: acetonitrile
The use of columns, solvents, flow rate and gradients is detailed in the table below. Detector: element specific detection by ICP-MS, running at m/z 90, the most abundant isotope of Zirconium.

| Stability [%] | Substance |
| --- | --- |
| 100 | Bis[µ3-3,3',3"-({[1R-(1α,2α,3α,4α,5α,6α)]-2,4,6-trihydroxylato-1κ^2O^2O^6, 2κ^2O^2O^4,3κ^2O^4O^6-cyclohexane-1,3,5-triyl}tris{methylimino-1κN^1,2κN^3,3κN^5})tripropanoato-1κO,2κO',3κO"]trizirconium(IV) [Example 3] |
| 100 | Hydroxido-3κO-[µ3-3,3',3"-({[1R-(1α,2α,3α,4α,5α,6α)]-2,4,6-trihydroxylato-1κ^2O^2O^6, 2κO^2O^4,3κ^2O^4O^6-cyclohexane-1,3,5-triyl]tris{methylimino-1κN^1,2κN^3,3κN^5}) tri-propanoato-1κO,2κO',3κO"][µ3-3,3'-({[1R-(1α,2α,3α,4α,5α,6α)]-2,4,6-trihydroxylato-1κ^2O^2O^6,2κ^2O^2O^4,3κ^2O^4O^6-5-[methylamino-3κN^5]cyclohexane-1,3-diyl}bis{methyl-imino-1κN^1,2κN^3})dipropanonato-1κO,2κO']trizirconium(IV) [Example 4] |

From patent publication EP2873670A1, “Bis azainositol zirconium complexes for X-ray imaging” (Bayer Pharma Aktiengesellschaft, priority 2013, dated 2015)
